Data as given in patent US20260124293A1 (priority 2022, published 2026).

How the values were obtained:
K18-hACE2 mice = details: mouse, in vivo
Syrian hamsters = details: hamster, in vivo

In the case of “BetaCoV/Wuhan/IVDC-HB-01/2019 [SARS-CoV-2 WT]”, the body weight loss (K18-hACE2 mice) is reported as “associated with weight loss”, the clinical signs (K18-hACE2 mice) is reported as “only WT exhibit clinical signs” and the “animals that succumbed to the disease or reached termination criteria” value (Syrian hamsters) is reported as 75%. For the same substance, the mean bodyweight (Syrian hamsters) was 84%.
